What was measured:
5-HT2CR [1] = biological target: T1, 5-HT2CR (Homo sapiens, UniProt P28335); assay: 5-HT induced intracellular calcium (Cai++) release assay in live 5-HT2CR-CHO cells; type: cell-based; parameters: expressed in transfected cells
T1 sequence (P28335 33-458): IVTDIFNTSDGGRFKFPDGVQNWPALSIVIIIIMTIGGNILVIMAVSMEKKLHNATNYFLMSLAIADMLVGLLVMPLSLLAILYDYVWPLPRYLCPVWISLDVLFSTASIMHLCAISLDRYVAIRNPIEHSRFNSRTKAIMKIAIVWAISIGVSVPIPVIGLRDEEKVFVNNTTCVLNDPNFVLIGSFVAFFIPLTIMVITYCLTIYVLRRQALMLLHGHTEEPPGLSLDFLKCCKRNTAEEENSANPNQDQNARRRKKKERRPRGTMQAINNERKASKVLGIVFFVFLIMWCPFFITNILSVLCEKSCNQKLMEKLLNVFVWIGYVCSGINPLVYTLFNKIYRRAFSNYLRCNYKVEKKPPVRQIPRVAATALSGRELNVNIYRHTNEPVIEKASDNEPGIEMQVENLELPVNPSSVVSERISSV
Description: Selected results for the biological characterization of the synthesized compounds can be found in Ding et al., ACS Chem. Neurosci., 3, 538-545, 2012, and also described herein. The biological activity is assessed using an intracellular calcium (Cai^++) release assay. The best-characterized intracellular signaling pathway of the 5-HT2CR is the activation of phospholipase C (PLCβ) via Gαq/11 proteins and the production of diacylglycerol (DAG) and inositol-1,4,5-trisphosphate (IP3), leading to increased Cai^++ release from intracellular stores (Berg et al., Neuropharmacology 55, 969-76, 2008). Functional characterization of our synthetic PNU-69176E (CYD-1-78-2) and its diastereomer CYD-1-78-1 was determined by utilizing an Cai^++ release assay in live cells in which Cai^++ levels can be regarded as an outcome measure of activation of the 5-HT2CR signaling pathway (Berg et al., Neuropharmacology 55, 969-76, 2008). […] In addition, 1 nM of compound CYD-1-78-2 enhanced the Cai^++ response at low concentrations of 5-HT [10^11-3×10^−10 M; F(15,55)=16.73, p<0.01; FIG. 2]. […] Neither compound CYD-1-78-2 [F(10,68)=0.81, n.s.] nor the diastereomer CYD-1-78-1 [F(10,34)=0.76, n.s.] in concentrations up to 10^−5 M induced Cai^++ release in the 5-HT2CR—CHO cells in the absence of 5-HT (FIG. 3). This profile for compounds CYD-1-78-2 and −1 in 5-HT2CR—CHO cells was distinguished from that seen in 5-HT2AR—CHO cells in which neither compound alone or in the presence of 5-HT (compound CYD-1-78-1, F(10,43)=0.78; compound CYD-1-78-2, F(10,55)=1.27; FIG. 4) altered Cai^++ release (Ding et al., ACS Chem. Neurosci. 3, 538-545, 2012).
The Chinese hamster ovary (CHO) cell line stably transfected with 5-HT2CR was a generous gift of K. Berg and W. Clarke (University of Texas Health Science Center, San Antonio) (K. A. Berg, W. P. Clarke, C. Sailstad, A. Saltzman and S. Maayani, Mol. Pharmacol. 1994, 46 (3), 477-484; Ding et al., ACS Chem. Neurosci. 3, 538-545, 2012). Cells were grown at 37° C., 5% CO2 and 85% relative humidity in GlutaMax α-MEM (Invitrogen, Carlsbad Calif.), 5% fetal bovine serum (Atlanta Biologicals, Atlanta Ga.), 100 μg/mL hygromycin (Mediatech, Manassas Va.) and were passaged when they reached 80% confluence.
Changes in Cai^++ levels were determined using the calcium sensitive dye Calcium 4 (FLIPR No-wash kit, Molecular Devices, Sunnyvale, Calif., part #R8142). Cells were plated in serum-replete medium at 20,000 cells/well in black-sided, clear bottom 96-well tissue culture plates and were fed ˜24 hrs later with serum-free medium. Following overnight incubation, medium was removed and replaced with 40 μL of fresh serum-free medium plus 40 μL Calcium 4 dye solution in Hank's balanced saline solution (HBSS, without CaCl2 or MgCl2) supplemented with 2.5 mM water soluble probenicid (Invitrogen) to inhibit extracellular transport of the dye. Plates were incubated for 60 min at 37° C. and 60 min at room temperature in the dark. Fluorescence (λex=485 nm, λem=525 nm) was measured with a FlexStation3 (Molecular Devices). A baseline was established for each well during the initial segment of each run. Addition of 20 μL of 5× concentrated tested compound occurred at 17 sec and fluorescence was recorded every 1.7 sec for 90 sec to determine any innate agonist activity. This first round of 90 sec recordings provided a 20 min preincubation period. […] Maximum peak height was determined by the FlexStation software (SoftMax Pro 5.2) for each well and was normalized to vehicle control.

5-HT2CR [2] = biological target: T1, 5-HT2CR; parameters: host or cells: stably transfected HEK293 cells (Im et al., Mol. Pharmacol. 64, 78-84, 2003); settings: Im et al., 2003, cited from earlier work

CCCCCCCCCCC[C@@H]1CCN[C@H](C(=O)N[C@@H]([C@H]2O[C@H](SC)[C@H](O)[C@@H](O)[C@H]2O)[C@H](C)Cl)C1.Cl [CYD-1-78-2]
Cai++ release induced by 0.3 nM 5-HT in presence of compound (5-HT2CR [1]; 0.3 nM 5-HT (~EC20) alone gives 23.9%, 5-HTmax determined at 1 μM 5-HT): 48.5 % of 5-HTmax
effect on Cai++ release induced by 0.3 nM 5-HT (5-HT2CR [1]; 0.3 nM 5-HT, 5-HT2CR-CHO cells): potentiated
concentrations that significantly enhanced Cai++ release above that of 0.3 nM 5-HT alone (5-HT2CR [1]; 0.3 nM 5-HT, Dunnett's, p<0.05): 10^−13-10^−7 M
effect of 1 nM compound on Cai++ response at low concentrations of 5-HT (5-HT2CR [1]; 1 nM compound, 5-HT 10^11-3×10^−10 M): enhanced
effect on Cai++ release at the highest concentration utilized (5-HT2CR [1]; 10^−5 M compound, 0.3 nM 5-HT, p<0.05): reduced
Cai++ release in the absence of 5-HT (intrinsic agonist activity) (5-HT2CR [1]; concentrations up to 10^−5 M, no 5-HT): n.s. and did not detect intrinsic agonist activity
intrinsic activation of GTPγS binding and IP3 release/[3H]IP accumulation in the absence of 5-HT (5-HT2CR [2]; HEK293 cell line (~45 pmol/mg protein)): detected intrinsic activation
concentrations giving positive allosteric modulation in the presence of 5-HT (5-HT2CR [2]): less than 10 μM
modulation at higher concentrations in the presence of 5-HT (5-HT2CR [2]; concentrations above 10 μM): negative allosteric modulation
